Results from patent US10807944B2, “HDAC inhibitor compounds and methods of treatment” (priority 2014, dated 2020).
Read-outs that look alike come from different tables or passages of the source.

Columns and labels:
HepG2 cells [1] = assay: cells; conditions: Homo sapiens
MDA-MB-231 cells [2] = assay: Global gene expression (Affymetrix Human Transcriptome Array 2.0) with Ingenuity Pathway Analysis; format: cell-based; conditions: 24 h; for Predicated activation state, Biological Functions / Predicated activation state, Upstream Regulators: 1 μM
HepG2 cells [3] = system: HepG2 cells
HCT116 cells [4] = assay: H3K18ac after 6 h pulse treatment and drug washout; format: cell-based
HDAC6 = HDAC6 (Homo sapiens (Human), UniProt Q9UBN7); assay: HDAC6 in vitro inhibition, dose response; format: biochemical
HDAC3 [5] = target: T1, HDAC3 (Homo sapiens (Human), UniProt O15379); assay: HDAC3 in vitro inhibition, dose response; format: biochemical
HDAC11 = HDAC11 (Homo sapiens (Human), UniProt Q96DB2); assay: HDAC11 in vitro inhibition, dose response; format: biochemical; conditions: Table 1; read-out: Inhibitory Potency (IC50) HDAC 11
in vivo = conditions: mouse, plasma, po, 80 mg/kg
HDAC3 [6] = target: T1, HDAC3; assay: HDAC-3 inhibition potency, luminescence readout; format: biochemical; conditions: Table 6, luminescence readout
HDAC8 = HDAC8 (Homo sapiens (Human), UniProt Q9BY41); assay: HDAC8 in vitro inhibition, dose response; format: biochemical
HDAC2 [7] = target: T2, HDAC2 (Homo sapiens (Human), UniProt Q92769); assay: HDAC2 in vitro inhibition, dose response; format: biochemical
HCT116 cells [8] = assay: Histone acetylation by Western blotting; format: cell-based
MDA-MB-231 cells [9] = assay: Cell cycle analysis by FACS; format: cell-based; conditions: MDA-MB-231, 24 h, dose-dependent
HCT116 and A549 cells = assay: Acetylation of non-histone proteins by Western blotting; format: cell-based
HDAC7 = HDAC7 (Homo sapiens (Human), UniProt Q8WUI4); assay: HDAC7 in vitro inhibition, dose response; format: biochemical; conditions: Table 1; read-out: Inhibitory Potency (IC50) HDAC 7
MDA-MB-468 cells = assay: Viability of MDA-MB-468 cells, with or without HDAC shRNA; conditions: for IC50: Homo sapiens
HDAC2 [10] = target: T2, HDAC2; assay: HDAC-2 inhibition potency, luminescence readout; format: biochemical; conditions: Table 6, luminescence readout
Source text: (§1) Compounds were examined for their HDAC inhibitory activity and their effect on cancer cell viability (MDA-MB-231 cells).

HDAC4 = HDAC4 (Homo sapiens (Human), UniProt P56524); assay: HDAC4 in vitro inhibition, dose response; format: biochemical; conditions: Table 1; read-out: Inhibitory Potency (IC50) HDAC 4
HDAC1 [11] = target: T3, HDAC1 (Homo sapiens (Human), UniProt Q13547); assay: HDAC-1 inhibition potency, luminescence readout; format: biochemical; conditions: Table 6, luminescence readout
Source text: as §1

HDAC9 = HDAC9 (Homo sapiens (Human), UniProt Q9UKV0); assay: HDAC9 in vitro inhibition, dose response; format: biochemical; conditions: Table 1; read-out: Inhibitory Potency (IC50) HDAC 9
HDAC10 = HDAC10 (Homo sapiens (Human), UniProt Q969S8); assay: HDAC10 in vitro inhibition, dose response; format: biochemical; conditions: Table 1; read-out: Inhibitory Potency (IC50) HDAC 10
[12] = mouse, in vivo, po
HDAC1 [13] = target: T3, HDAC1; assay: In vitro HDAC1 inhibition of HTS hits (HDAC I/II-Glo reagents); format: biochemical; conditions: HTS follow-up
[14] = system: NCI-60 panel of cancer cell lines; assay: NCI-60 panel of cancer cell lines, cell growth; format: cell-based; conditions: all tested cell lines
MDA-MB-231 cells [15] = conditions: MDA-MB-231 monolayer scratch; UF010 at 1 μM
MDA-MB-231 cells [16] = assay: Cancer cell viability (CellTiter-Glo); format: cell-based; conditions: Homo sapiens, MDA-MB-231, read-out: Cancer cell (MDA-MB-231) killing IC50
CDKN1A = assay: qPCR of CDKN1A encoding p21; format: cell-based; conditions: MDA-MB-231
[17] = Oral tolerability / maximal tolerated dose in mice; conditions: mouse

T1 sequence (O15379 whole entry): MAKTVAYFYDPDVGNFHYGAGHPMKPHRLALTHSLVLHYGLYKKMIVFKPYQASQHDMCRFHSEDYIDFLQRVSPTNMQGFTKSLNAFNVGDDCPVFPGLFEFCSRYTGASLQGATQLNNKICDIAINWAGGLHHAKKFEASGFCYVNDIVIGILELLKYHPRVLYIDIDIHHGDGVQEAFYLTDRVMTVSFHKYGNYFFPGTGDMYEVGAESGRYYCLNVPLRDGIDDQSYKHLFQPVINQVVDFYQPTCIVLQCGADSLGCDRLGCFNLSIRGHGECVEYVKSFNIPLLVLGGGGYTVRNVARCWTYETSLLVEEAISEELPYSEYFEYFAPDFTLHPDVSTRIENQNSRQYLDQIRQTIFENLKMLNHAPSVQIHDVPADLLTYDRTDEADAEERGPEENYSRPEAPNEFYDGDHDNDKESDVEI
T1 sequence (Q9Y618 395-489 partner): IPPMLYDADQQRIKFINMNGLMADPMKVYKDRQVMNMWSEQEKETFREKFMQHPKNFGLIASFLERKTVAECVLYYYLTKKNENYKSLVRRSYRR
T2 sequence (Q92769 whole entry): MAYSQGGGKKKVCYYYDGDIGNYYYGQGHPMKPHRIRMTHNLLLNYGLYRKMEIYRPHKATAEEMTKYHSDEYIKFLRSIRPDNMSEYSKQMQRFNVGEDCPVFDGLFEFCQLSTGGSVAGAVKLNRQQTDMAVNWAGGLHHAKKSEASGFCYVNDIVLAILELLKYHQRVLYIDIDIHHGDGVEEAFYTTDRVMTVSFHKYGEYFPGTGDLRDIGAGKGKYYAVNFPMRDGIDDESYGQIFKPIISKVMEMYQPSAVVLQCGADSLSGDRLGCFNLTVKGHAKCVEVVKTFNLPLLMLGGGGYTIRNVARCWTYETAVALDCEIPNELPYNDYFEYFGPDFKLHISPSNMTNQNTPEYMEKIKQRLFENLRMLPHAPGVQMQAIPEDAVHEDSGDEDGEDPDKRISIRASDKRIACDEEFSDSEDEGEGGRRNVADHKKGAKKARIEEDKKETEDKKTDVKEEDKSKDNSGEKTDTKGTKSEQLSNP
Sequence of HDAC8 (Q9BY41 whole entry): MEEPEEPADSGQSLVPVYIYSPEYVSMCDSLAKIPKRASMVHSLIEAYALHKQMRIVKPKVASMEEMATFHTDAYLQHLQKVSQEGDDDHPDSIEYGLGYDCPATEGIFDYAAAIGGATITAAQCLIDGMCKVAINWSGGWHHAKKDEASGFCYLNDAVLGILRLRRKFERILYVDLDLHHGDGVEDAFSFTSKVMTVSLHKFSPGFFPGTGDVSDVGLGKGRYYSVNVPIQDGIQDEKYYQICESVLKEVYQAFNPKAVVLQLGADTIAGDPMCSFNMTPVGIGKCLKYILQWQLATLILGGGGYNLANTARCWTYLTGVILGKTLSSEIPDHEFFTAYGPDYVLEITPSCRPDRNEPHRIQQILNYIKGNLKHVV
T3 sequence (Q13547 whole entry): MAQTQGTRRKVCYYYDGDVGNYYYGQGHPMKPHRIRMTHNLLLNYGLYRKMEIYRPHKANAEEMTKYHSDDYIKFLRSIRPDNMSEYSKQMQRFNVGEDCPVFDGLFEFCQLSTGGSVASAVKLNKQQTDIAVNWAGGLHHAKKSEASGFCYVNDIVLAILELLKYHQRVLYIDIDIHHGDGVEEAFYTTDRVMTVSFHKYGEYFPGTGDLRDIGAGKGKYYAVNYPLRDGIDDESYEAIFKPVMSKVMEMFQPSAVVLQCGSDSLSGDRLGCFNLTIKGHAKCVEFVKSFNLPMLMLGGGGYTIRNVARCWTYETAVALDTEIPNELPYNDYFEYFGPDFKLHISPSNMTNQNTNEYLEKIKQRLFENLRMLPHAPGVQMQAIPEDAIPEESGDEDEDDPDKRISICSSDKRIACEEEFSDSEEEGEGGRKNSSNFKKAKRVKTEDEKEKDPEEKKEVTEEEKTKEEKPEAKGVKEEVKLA
Sequence of HDAC6 (Q9UBN7 whole entry): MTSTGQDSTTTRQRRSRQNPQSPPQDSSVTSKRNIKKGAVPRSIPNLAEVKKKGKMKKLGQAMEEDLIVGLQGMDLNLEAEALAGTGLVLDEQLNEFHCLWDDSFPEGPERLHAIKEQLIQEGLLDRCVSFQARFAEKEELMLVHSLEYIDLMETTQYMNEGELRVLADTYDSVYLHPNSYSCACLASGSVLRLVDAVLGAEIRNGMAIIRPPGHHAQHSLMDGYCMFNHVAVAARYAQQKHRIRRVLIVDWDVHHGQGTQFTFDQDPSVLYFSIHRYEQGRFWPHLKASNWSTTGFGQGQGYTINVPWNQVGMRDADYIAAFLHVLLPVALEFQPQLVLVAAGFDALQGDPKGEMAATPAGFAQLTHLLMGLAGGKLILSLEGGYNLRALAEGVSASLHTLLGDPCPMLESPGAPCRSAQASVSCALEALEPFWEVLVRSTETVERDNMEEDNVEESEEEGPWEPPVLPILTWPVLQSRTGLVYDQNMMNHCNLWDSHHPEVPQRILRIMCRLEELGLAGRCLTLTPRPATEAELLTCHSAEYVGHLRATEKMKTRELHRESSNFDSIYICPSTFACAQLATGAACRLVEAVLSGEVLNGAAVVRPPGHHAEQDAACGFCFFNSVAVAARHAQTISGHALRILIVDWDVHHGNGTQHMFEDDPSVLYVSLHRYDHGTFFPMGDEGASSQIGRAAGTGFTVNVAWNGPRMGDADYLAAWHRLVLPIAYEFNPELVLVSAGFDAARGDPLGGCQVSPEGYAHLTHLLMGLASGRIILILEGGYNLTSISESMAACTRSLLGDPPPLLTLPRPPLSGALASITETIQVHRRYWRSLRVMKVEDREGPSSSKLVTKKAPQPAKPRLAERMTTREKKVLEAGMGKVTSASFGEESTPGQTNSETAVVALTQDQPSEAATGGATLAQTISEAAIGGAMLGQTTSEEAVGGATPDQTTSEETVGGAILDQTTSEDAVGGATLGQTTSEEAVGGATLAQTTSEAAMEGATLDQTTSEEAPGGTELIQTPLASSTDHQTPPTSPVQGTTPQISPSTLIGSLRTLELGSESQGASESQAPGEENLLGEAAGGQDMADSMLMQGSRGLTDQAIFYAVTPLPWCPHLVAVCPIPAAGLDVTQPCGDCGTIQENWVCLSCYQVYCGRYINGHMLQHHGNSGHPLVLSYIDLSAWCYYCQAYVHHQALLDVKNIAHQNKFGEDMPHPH
Sequence of HDAC9 (Q9UKV0 whole entry): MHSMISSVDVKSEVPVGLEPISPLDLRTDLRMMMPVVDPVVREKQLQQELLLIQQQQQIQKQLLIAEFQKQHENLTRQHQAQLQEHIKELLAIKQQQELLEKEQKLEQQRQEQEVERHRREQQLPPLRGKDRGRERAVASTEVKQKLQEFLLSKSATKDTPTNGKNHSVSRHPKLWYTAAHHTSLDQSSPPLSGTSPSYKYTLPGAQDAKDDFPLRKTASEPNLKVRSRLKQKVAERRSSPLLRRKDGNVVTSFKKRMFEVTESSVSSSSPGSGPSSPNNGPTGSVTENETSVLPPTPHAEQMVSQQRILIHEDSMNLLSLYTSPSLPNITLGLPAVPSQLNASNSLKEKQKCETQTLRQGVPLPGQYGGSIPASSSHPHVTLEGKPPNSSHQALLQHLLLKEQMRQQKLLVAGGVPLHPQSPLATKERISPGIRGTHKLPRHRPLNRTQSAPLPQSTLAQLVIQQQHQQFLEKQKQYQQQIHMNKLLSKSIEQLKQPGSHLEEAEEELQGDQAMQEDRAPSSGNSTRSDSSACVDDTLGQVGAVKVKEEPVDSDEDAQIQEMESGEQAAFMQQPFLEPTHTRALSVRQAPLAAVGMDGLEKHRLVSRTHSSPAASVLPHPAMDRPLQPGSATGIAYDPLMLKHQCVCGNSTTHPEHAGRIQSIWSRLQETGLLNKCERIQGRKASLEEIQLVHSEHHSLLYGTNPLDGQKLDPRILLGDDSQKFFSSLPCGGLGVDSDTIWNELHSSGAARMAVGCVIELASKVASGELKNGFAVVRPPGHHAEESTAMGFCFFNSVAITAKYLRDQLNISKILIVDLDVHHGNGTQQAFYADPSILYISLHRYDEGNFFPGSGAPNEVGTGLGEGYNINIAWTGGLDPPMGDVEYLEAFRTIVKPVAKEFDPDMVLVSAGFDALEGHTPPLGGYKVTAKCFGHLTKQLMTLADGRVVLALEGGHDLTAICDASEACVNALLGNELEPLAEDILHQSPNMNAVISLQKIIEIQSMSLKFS
Sequence of HDAC10 (Q969S8 whole entry): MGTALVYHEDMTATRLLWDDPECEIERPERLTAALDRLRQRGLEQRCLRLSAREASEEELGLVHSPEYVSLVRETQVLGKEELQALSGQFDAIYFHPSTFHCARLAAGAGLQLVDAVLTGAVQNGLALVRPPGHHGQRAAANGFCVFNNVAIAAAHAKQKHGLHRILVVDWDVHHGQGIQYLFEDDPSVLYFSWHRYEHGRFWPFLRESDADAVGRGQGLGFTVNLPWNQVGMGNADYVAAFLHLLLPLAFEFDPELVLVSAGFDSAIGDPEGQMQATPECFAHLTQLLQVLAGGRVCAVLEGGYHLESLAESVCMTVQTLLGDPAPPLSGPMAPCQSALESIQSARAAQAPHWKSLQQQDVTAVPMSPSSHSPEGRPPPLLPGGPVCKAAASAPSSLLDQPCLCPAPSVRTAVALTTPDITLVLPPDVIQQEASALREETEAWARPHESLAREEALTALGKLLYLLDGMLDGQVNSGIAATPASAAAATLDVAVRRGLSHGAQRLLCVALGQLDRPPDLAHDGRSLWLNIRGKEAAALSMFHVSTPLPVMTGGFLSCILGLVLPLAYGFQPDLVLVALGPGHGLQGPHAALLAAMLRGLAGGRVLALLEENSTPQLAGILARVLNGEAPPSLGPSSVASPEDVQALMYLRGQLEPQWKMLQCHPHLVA

CCCCNNC(=O)c1ccc(Br)cc1 [UF010, 4-bromo-N′-butylbenzohydrazide]
IC50 (HepG2 cells [1]; HepG2, read-out: IC50 Control): 4.6 µM | IC50 (HepG2 cells [1]; HepG2, read-out: IC50 HDAC1 shRNA): 5.9 µM | IC50 (HepG2 cells [1]; HepG2, read-out: IC50 HDAC2 shRNA): 10.9 µM | IC50 (HepG2 cells [1]; HepG2, read-out: IC50 HDAC3 shRNA): 1.3 µM | Predicated activation state, Biological Functions (MDA-MB-231 cells [2]; Apoptosis): Activated | Predicated activation state, Upstream Regulators (MDA-MB-231 cells [2]; Butyric acid): Activated | Predicated activation state, Biological Functions (MDA-MB-231 cells [2]; Cell cycle progression): Suppressed | Predicated activation state, Biological Functions (MDA-MB-231 cells [2]; Cell survival): Suppressed | Predicated activation state, Upstream Regulators (MDA-MB-231 cells [2]; Cisplatin): Activated | Predicated activation state, Upstream Regulators (MDA-MB-231 cells [2]; ERK1/2): Activated | Predicated activation state, Upstream Regulators (MDA-MB-231 cells [2]; HDAC1): Suppressed | Predicated activation state, Upstream Regulators (MDA-MB-231 cells [2]; HDAC2): Suppressed | Predicated activation state, Upstream Regulators (MDA-MB-231 cells [2]; KRAS): Suppressed | number of genes downregulated by […] (MDA-MB-231 cells [2]; MDA-MB-231, 1 μM): 68 | number of genes upregulated by […] (MDA-MB-231 cells [2]; MDA-MB-231, 1 μM): 115 | Predicated activation state, Upstream Regulators (MDA-MB-231 cells [2]; MYCN): Suppressed | Predicated activation state, Upstream Regulators (MDA-MB-231 cells [2]; Myc): Suppressed | Predicated activation state, Biological Functions (MDA-MB-231 cells [2]; Necrosis): Activated | Predicated activation state, Biological Functions (MDA-MB-231 cells [2]; Proliferation of cells): Suppressed | Predicated activation state, Upstream Regulators (MDA-MB-231 cells [2]; Rb1): Activated | Predicated activation state, Biological Functions (MDA-MB-231 cells [2]; Repair of DNA): Suppressed | Predicated activation state, Upstream Regulators (MDA-MB-231 cells [2]; Romidepsin): Activated | Predicated activation state, Upstream Regulators (MDA-MB-231 cells [2]; TP53): Activated | Predicated activation state, Biological Functions (MDA-MB-231 cells [2]; Transcription of RNA): Suppressed | Predicated activation state, Upstream Regulators (MDA-MB-231 cells [2]; Tributyrin (butyrate)): Activated | Predicated activation state, Upstream Regulators (MDA-MB-231 cells [2]; Trichostatin A): Activated | Predicated activation state, Upstream Regulators (MDA-MB-231 cells [2]; fulvestrant): Activated | reduction of cytotoxic potency by HDAC2 shRNA expression (HepG2 cells [3]): about 2 fold | time at which histone acetylation (H3K18ac) was induced (HCT116 cells [4]; HCT116, 6 h pulse exposure): ≤ 6 h | time up to which induced acetylation was maintained (HCT116 cells [4]; HCT116, 6 h pulse then drug washout, time after drug addition): up to 96 h | mode of HDAC inhibition (on/off) (HCT116 cells [4]; HCT116, washout experiment): fast-on but slow-off | IC50 (HDAC6; Table 1, read-out: Inhibitory Potency (IC50) HDAC 6): 9.1 µM | IC50 (HDAC6; Table 2, read-out: HDAC 6 IC50): 9.1 µM | IC50 (HDAC3 [5]; Table 1, read-out: Inhibitory Potency (IC50) HDAC 3): 0.06 µM | IC50 (HDAC3 [5]; Table 2, read-out: HDAC 3 IC50): 0.06 µM | IC50 (HDAC11): 44.5 µM | AUC (in vivo): 6.07 µM·h | Cmax (in vivo): 5.95 µM | Tmax (in vivo): 15 min | half-life (in vivo): 74.4 min | IC50 (HDAC3 [6]): 0.19 µM | IC50 (HDAC8; Table 1, read-out: Inhibitory Potency (IC50) HDAC 8): 1.5 µM | IC50 (HDAC8; Table 2, read-out: HDAC 8 IC50): 1.5 µM | IC50 (HDAC2 [7]; Table 1, read-out: Inhibitory Potency (IC50) HDAC 2): 0.1 µM | IC50 (HDAC2 [7]; Table 2, read-out: HDAC 2 IC50): 0.1 µM | inhibition of cellular HDACs (H4K5ac, H3K18ac) (HCT116 cells [8]; HCT116, 0.5 μM, 24 h (FIG. 1B)): potent inhibition of cellular HDACs | accumulation of acetylated histones (HCT116 cells [8]; HCT116, 1 h exposure, TSA 0.2 μM, others 2 μM (FIG. 1A)): consistently induced the accumulation of acetylated histones at all sites examined | cell cycle effect (MDA-MB-231 cells [9]): mainly blocked G1/S transition | α-tubulin acetylation (HCT116 and A549 cells; HCT116 and A549, 1 h, TSA 0.2 μM, UF010 2 μM): little to no effect | accumulation of acetylated p53 (HCT116 and A549 cells; HCT116 and A549, after exposure to etoposide): induced accumulation of acetylated p53 | p53 stabilization (HCT116 and A549 cells; with or without etoposide treatment): notably stabilized p53 | IC50 (HDAC7): > 100 µM | IC50 (MDA-MB-468 cells; MDA-MB-468, read-out: IC50 Control): 16.1 µM | IC50 (MDA-MB-468 cells; MDA-MB-468, read-out: IC50 HDAC2 shRNA): 32.8 µM | reduction of cytotoxic potency by HDAC2 shRNA expression (MDA-MB-468 cells; MDA-MB-468): about 2 fold | IC50 (HDAC2 [10]): 1.33 µM | IC50 (HDAC4): > 100 µM | IC50 (HDAC1 [11]): 0.46 µM | IC50 (HDAC9): > 100 µM | IC50 (HDAC10): 15.3 µM | abnormal physical or mental behaviors [12]: No signs | potency of HDAC1 inhibition in vitro (HDAC1 [13]): < 10 µM | inhibition of proliferation, NCI-60 panel [14]: inhibited proliferation of all tested cell lines | cell migration to the denuded areas (MDA-MB-231 cells [15]): markedly slowed migration | IC50 (MDA-MB-231 cells [16]): 31 µM | CDKN1A (p21) expression by quantitative real-time PCR (CDKN1A): activation of CDKN1A | MTD ([17]; in vivo, po, 80 mg/kg): > 80 mg/kg | MTD ([17]; oral once daily): >80 mg/kg
